Reference: ChEMBL document CHEMBL4732190, “Identification of Potent and Long-Acting Single-Chain Peptide Mimetics of Human Relaxin-2 for Cardiovascular Diseases” (J Med Chem, 2021)
Where a SMILES comes first, the peptide text is derived from it.

Assays:
Relaxin receptor 1 = target: T1, Relaxin receptor 1 (Homo sapiens, UniProt Q9HBX9); assay: Agonist activity at RXFP1 endogenously expressed in human OVCAR-5 cells assessed as increase in IBMX-induced cAMP accumulation pretreated with IBMX for 40 mins followed by compound addition and measured after 30 mins by HTRF assay; assay type: functional, cell-based
T1 sequence (Q9HBX9 whole entry): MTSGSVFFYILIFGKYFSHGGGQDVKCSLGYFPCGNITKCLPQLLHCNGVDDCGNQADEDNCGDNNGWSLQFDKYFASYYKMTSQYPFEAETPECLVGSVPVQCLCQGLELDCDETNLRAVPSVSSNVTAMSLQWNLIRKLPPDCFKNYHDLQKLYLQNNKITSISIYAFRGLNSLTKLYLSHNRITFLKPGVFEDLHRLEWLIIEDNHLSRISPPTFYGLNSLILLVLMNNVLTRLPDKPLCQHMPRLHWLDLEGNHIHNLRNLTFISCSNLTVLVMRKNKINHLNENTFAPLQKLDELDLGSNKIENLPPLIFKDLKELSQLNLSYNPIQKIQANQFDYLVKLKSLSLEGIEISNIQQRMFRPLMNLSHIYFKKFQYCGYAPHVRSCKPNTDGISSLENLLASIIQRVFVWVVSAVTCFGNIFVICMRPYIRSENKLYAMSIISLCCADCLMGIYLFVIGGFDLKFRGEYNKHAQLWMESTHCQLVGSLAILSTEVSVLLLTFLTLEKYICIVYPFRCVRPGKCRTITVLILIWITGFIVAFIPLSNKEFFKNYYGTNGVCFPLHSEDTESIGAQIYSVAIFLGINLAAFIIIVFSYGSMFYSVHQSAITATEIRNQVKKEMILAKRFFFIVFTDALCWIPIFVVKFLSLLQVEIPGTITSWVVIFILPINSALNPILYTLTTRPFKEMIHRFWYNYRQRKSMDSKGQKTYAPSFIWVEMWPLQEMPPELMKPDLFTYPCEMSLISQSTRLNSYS

[1] = target: T2, Relaxin receptor 1 (Homo sapiens) (UniProt Q9HBX9); assay: Agonist activity at RXFP1 endogenously expressed in human OVCAR-5 cells assessed as increase in IBMX-induced cAMP accumulation pretreated with IBMX for 40 mins followed by compound addition and measured after 30 mins by HTRF assay relative to relaxin; assay type: functional, cell-based; details: filed as agonist
T2 sequence (whole entry): T1 sequence (Q9HBX9 whole entry)

| Structure (SMILES) | EC50 (Relaxin receptor 1) [µM] | Emax [1] [%] |
| --- | --- | --- |
| CC[C@H](C)[C@H](NC(=O)[C@H](CCC(N)=O)NC(=O)[C@H](C)NC(=O)[C@H](CCCNC(=N)N)NC(=O)[C@@H](NC(=O)[C@H](CC(C)C)NC(=O)[C@H](CCC(=O)O)NC(=O)[C@H](CCCNC(=N)N)NC(=O)CNC(=O)[C@H](CO)NC(=O)[C@H](CC(C)C)NC(=O)[C@H](CCCCN)NC(=O)[C@@H](NC(=O)[C@@H](NC(=O)[C@H](CCC(=O)O)NC(=O)[C@H](CCC(=O)O)NC(C)=O)C(C)C)[C@@H](C)CC)C(C)C)C(=O)NC[C@H](C)C(=O)N[C@H](C(=O)N[C@@H](CCC(=O)O)C(=O)NCC(=O)N[C@@H](CCSC)C(=O)N[C@@H](CO)C(=O)N[C@@H](CCCCN)C(=O)N[C@@H](Cc1c[nH]c2ccccc12)C(=O)N[C@@H](CO)C(=O)N[C@@H](CCCCN)C(=O)N[C@@H](CCCNC(=N)N)C(=O)N[C@@H](CCCCN)C(=O)N[C@@H](CCCCN)C(N)=O)[C@@H](C)CC (HELM PEPTIDE1{[ac].E.E.V.I.K.L.S.G.R.E.L.V.R.A.Q.I.[C[C@@H](CN[*:1])C(=O)[*:2]].I.E.G.M.S.K.W.S.K.R.K.K.[am]}$$$$V2.0) | 0.23 | 101 |
| CC[C@H](C)[C@H](NC(=O)[C@H](CCC(N)=O)NC(=O)[C@H](C)NC(=O)[C@H](CCCNC(=N)N)NC(=O)[C@@H](NC(=O)[C@H](CC(C)C)NC(=O)[C@H](CCC(=O)O)NC(=O)[C@H](CCCNC(=N)N)NC(=O)CNC(=O)[C@H](CO)NC(=O)[C@H](CC(C)C)NC(=O)[C@H](CCCCN)NC(=O)[C@@H](NC(=O)[C@@H](NC(=O)[C@H](CCC(=O)O)NC(=O)[C@H](CCC(=O)O)NC(C)=O)C(C)C)[C@@H](C)CC)C(C)C)C(=O)NC[C@H](C)C(=O)N[C@H](C(=O)N[C@@H](CO)C(=O)NCC(=O)N[C@@H](CCSC)C(=O)N[C@@H](CO)C(=O)N[C@H](C(=O)N[C@@H](Cc1c[nH]c2ccccc12)C(=O)N[C@@H](CO)C(=O)N[C@@H](CCCCN)C(=O)N[C@@H](CCCNC(=N)N)C(=O)N[C@@H](CCCCN)C(=O)N[C@@H](CCCCN)C(N)=O)[C@@H](C)O)[C@@H](C)CC (HELM PEPTIDE1{[ac].E.E.V.I.K.L.S.G.R.E.L.V.R.A.Q.I.[C[C@@H](CN[*:1])C(=O)[*:2]].I.S.G.M.S.T.W.S.K.R.K.K.[am]}$$$$V2.0) | 0.143 | 94 |
| CC[C@H](C)[C@H](NC(=O)[C@H](CCC(N)=O)NC(=O)[C@H](C)NC(=O)[C@H](CCCNC(=N)N)NC(=O)[C@@H](NC(=O)[C@H](CC(C)C)NC(=O)[C@H](CCC(=O)O)NC(=O)[C@H](CCCNC(=N)N)NC(=O)CNC(=O)[C@H](CO)NC(=O)[C@H](CC(C)C)NC(=O)[C@H](CCCCN)NC(=O)[C@@H](NC(=O)[C@@H](NC(=O)[C@H](CCC(=O)O)NC(=O)[C@H](CCC(=O)O)NC(C)=O)C(C)C)[C@@H](C)CC)C(C)C)C(=O)NC[C@H](C)C(=O)N[C@H](C(=O)N[C@@H](CO)C(=O)NCC(=O)N[C@@H](CCSC)C(=O)N[C@@H](CO)C(=O)N[C@H](C(=O)N[C@@H](Cc1c[nH]c2ccccc12)C(=O)N[C@@H](CO)C(=O)N[C@@H](CCCCN)C(=O)N[C@@H](CCCNC(=N)N)C(=O)N[C@@H](CO)C(=O)N[C@@H](CC(C)C)C(N)=O)[C@@H](C)O)[C@@H](C)CC (HELM PEPTIDE1{[ac].E.E.V.I.K.L.S.G.R.E.L.V.R.A.Q.I.[C[C@@H](CN[*:1])C(=O)[*:2]].I.S.G.M.S.T.W.S.K.R.S.L.[am]}$$$$V2.0) | 0.498 | 86 |
| CC[C@H](C)[C@H](NC(=O)[C@H](CCC(N)=O)NC(=O)[C@H](C)NC(=O)[C@H](CCCNC(=N)N)NC(=O)[C@@H](NC(=O)[C@H](CC(C)C)NC(=O)[C@H](CCC(=O)O)NC(=O)[C@H](CCCNC(=N)N)NC(=O)CNC(=O)[C@H](CO)NC(=O)[C@H](CC(C)C)NC(=O)[C@H](CCCCN)NC(=O)[C@@H](NC(=O)[C@@H](NC(=O)[C@H](CCC(=O)O)NC(=O)[C@H](CCC(=O)O)NC(C)=O)C(C)C)[C@@H](C)CC)C(C)C)C(=O)NC[C@H](C)C(=O)NC[C@H](C)C(=O)N[C@@H](CO)C(=O)NCC(=O)N[C@@H](CCSC)C(=O)N[C@@H](CO)C(=O)N[C@H](C(=O)N[C@@H](Cc1c[nH]c2ccccc12)C(=O)N[C@@H](CO)C(=O)N[C@@H](CCCCN)C(=O)N[C@@H](CCCNC(=N)N)C(=O)N[C@@H](CCCCN)C(=O)N[C@@H](CCCCN)C(N)=O)[C@@H](C)O (HELM PEPTIDE1{[ac].E.E.V.I.K.L.S.G.R.E.L.V.R.A.Q.I.[C[C@@H](CN[*:1])C(=O)[*:2]].[C[C@@H](CN[*:1])C(=O)[*:2]].S.G.M.S.T.W.S.K.R.K.K.[am]}$$$$V2.0) | 0.037 | 94 |
| CC[C@H](C)[C@H](NC(=O)[C@H](CCC(N)=O)NC(=O)[C@H](C)NC(=O)[C@H](CCCNC(=N)N)NC(=O)[C@@H](NC(=O)[C@H](CCCCN)NC(=O)[C@H](CCC(=O)O)NC(=O)[C@H](CCCNC(=N)N)NC(=O)CNC(=O)[C@H](CCC(=O)O)NC(=O)[C@H](CC(C)C)NC(C)=O)C(C)C)C(=O)NC[C@H](C)C(=O)NC[C@H](C)C(=O)N[C@@H](CCC(=O)O)C(=O)NCC(=O)N[C@@H](CCSC)C(=O)N[C@@H](CO)C(=O)N[C@H](C(=O)N[C@@H](Cc1c[nH]c2ccccc12)C(=O)N[C@@H](CO)C(=O)N[C@@H](CCCCN)C(=O)N[C@@H](CCCNC(=N)N)C(=O)N[C@@H](CCCCN)C(=O)N[C@@H](CCCCN)C(N)=O)[C@@H](C)O (HELM PEPTIDE1{[ac].L.E.G.R.E.K.V.R.A.Q.I.[C[C@@H](CN[*:1])C(=O)[*:2]].[C[C@@H](CN[*:1])C(=O)[*:2]].E.G.M.S.T.W.S.K.R.K.K.[am]}$$$$V2.0) | 0.023 | 99 |
| CC[C@H](C)[C@H](NC(=O)[C@H](CCC(N)=O)NC(=O)[C@H](C)NC(=O)[C@H](CCCNC(=N)N)NC(=O)[C@@H](NC(=O)[C@@H](NC(=O)[C@H](CCC(=O)O)NC(=O)[C@H](CCCNC(=N)N)NC(=O)CNC(=O)[C@H](CCC(=O)O)NC(=O)[C@H](CC(C)C)NC(=O)[C@H](CCCCN)NC(=O)[C@@H](NC(=O)[C@@H](NC(C)=O)C(C)C)[C@@H](C)CC)[C@@H](C)CC)C(C)C)C(=O)NC[C@H](C)C(=O)N[C@H](C(=O)N[C@@H](CO)C(=O)NCC(=O)N[C@@H](CCSC)C(=O)N[C@@H](CO)C(=O)N[C@H](C(=O)N[C@@H](Cc1c[nH]c2ccccc12)C(=O)N[C@@H](CO)C(=O)N[C@@H](CCCCN)C(=O)N[C@@H](CCCNC(=N)N)C(=O)N[C@@H](CCCCN)C(=O)N[C@@H](CCCCN)C(N)=O)[C@@H](C)O)[C@@H](C)CC (HELM PEPTIDE1{[ac].V.I.K.L.E.G.R.E.I.V.R.A.Q.I.[C[C@@H](CN[*:1])C(=O)[*:2]].I.S.G.M.S.T.W.S.K.R.K.K.[am]}$$$$V2.0) | 0.146 | 102 |
| CC[C@H](C)[C@H](NC(=O)[C@H](CCC(N)=O)NC(=O)[C@H](C)NC(=O)[C@H](CCCNC(=N)N)NC(=O)[C@@H](NC(=O)[C@H](CC(C)C)NC(=O)[C@H](CCC(=O)O)NC(=O)[C@H](CCCNC(=N)N)NC(=O)CNC(=O)[C@H](CO)NC(=O)[C@H](CC(C)C)NC(=O)[C@H](CCCCN)NC(=O)[C@@H](NC(=O)[C@@H](NC(C)=O)C(C)C)[C@@H](C)CC)C(C)C)C(=O)N[C@@H](C)C(=O)NC[C@H](C)C(=O)N[C@@H](CO)C(=O)NCC(=O)N[C@@H](CCSC)C(=O)N[C@@H](CO)C(=O)N[C@H](C(=O)N[C@@H](Cc1c[nH]c2ccccc12)C(=O)N[C@@H](CO)C(=O)N[C@@H](CCCCN)C(=O)N[C@@H](CCCNC(=N)N)C(=O)N[C@@H](CCCCN)C(=O)N[C@@H](CCCCN)C(N)=O)[C@@H](C)O (HELM PEPTIDE1{[ac].V.I.K.L.S.G.R.E.L.V.R.A.Q.I.A.[C[C@@H](CN[*:1])C(=O)[*:2]].S.G.M.S.T.W.S.K.R.K.K.[am]}$$$$V2.0) | 0.393 | 102 |
| CC[C@H](C)[C@H](NC(=O)[C@H](CCC(N)=O)NC(=O)[C@H](C)NC(=O)[C@H](CCCNC(=N)N)NC(=O)[C@@H](NC(=O)[C@H](CC(C)C)NC(=O)[C@H](CCC(=O)O)NC(=O)[C@H](CCCNC(=N)N)NC(=O)CNC(=O)[C@H](CO)NC(=O)[C@H](CC(C)C)NC(=O)[C@H](CCCCN)NC(=O)[C@@H](NC(=O)[C@@H](NC(C)=O)C(C)C)[C@@H](C)CC)C(C)C)C(=O)NC[C@H](C)C(=O)N[C@H](C(=O)N[C@@H](CCC(=O)O)C(=O)NCC(=O)N[C@@H](CCSC)C(=O)N[C@@H](CO)C(=O)N[C@@H](CCCCN)C(=O)N[C@@H](Cc1c[nH]c2ccccc12)C(=O)N[C@@H](CO)C(=O)N[C@@H](CCCCN)C(=O)N[C@@H](CCCNC(=N)N)C(=O)N[C@@H](CCCCN)C(=O)N[C@@H](CCCCN)C(N)=O)[C@@H](C)CC (HELM PEPTIDE1{[ac].V.I.K.L.S.G.R.E.L.V.R.A.Q.I.[C[C@@H](CN[*:1])C(=O)[*:2]].I.E.G.M.S.K.W.S.K.R.K.K.[am]}$$$$V2.0) | 0.046 | 98 |
